Test system: PAH patients
Experiment: 22-week randomized, double-blind, placebo-controlled study (Example 8)
Format: in vivo, human
Protocol: A 22-week randomized, double-blind, placebo-controlled study with a dose titration period of up to 9 weeks was conducted. Sixty-one patients were randomized 2:1 Compound 1 to placebo. Right Heart Catheterization (RHC) measurements were obtained prior to study Day 1 of the dose titration period and at Week 22. The following values were obtained and recorded: pulmonary artery pressure (PAP) (systolic, diastolic, and mean), heart rate (HR), right atrial pressure (RAP), pulmonary capillary wedge pressure (PCWP) right ventricular pressure (RVP) and cardiac output (CO), pulmonary vascular resistance (PVR), arterial and mixed venous oxygen saturation […] (if applicable). Systemic vascular resistance (SVR) was estimated from blood pressure measurements. The 6-minute walk test (6MWD) was conducted according to the modified guidelines issued by the American Thoracic Society. See Am J Respir Crit Care Med 166:111-117, 2002.
Primary efficacy endpoints for the study were: a) change from baseline in PVR after 22 weeks of treatment, and b) change from baseline in 6MWD after 22 weeks of treatment.
Compound 1 was administered as a capsule in 0.01, 0.02, 0.03, 0.04, and 0.10 mg dose strengths. The formulation was supplied as a liquid-filled, size 4, hard-gelatin capsule containing Compound 1, polyoxyl 40 hydrogenated castor oil (Kolliphor® RH40) NF, butylated hydroxytoluene (BHT)NF, and colloidal silicon dioxide NF.
The starting dose of Compound 1 was 0.01 mg twice daily. The dose of Compound 1 was titrated according to patient tolerability. If the initial dose was tolerated (0.01 mg twice daily), then the dose was increased once a week in the following fashion: 0.02 mg twice daily, 0.03 mg twice daily, 0.04 mg twice daily, 0.06 mg twice daily, 0.08 mg, 0.1 mg twice daily, 0.2 mg twice daily and 0.3 mg twice daily. The dose was optionally escalated to a possible maximum total daily dose of 0.6 mg (0.3 mg twice daily), pending tolerability. […] Compound 1 daily maintenance doses were titrated as high as 0.6 mg, and the most common dose was 0.4 mg.
Subjects received concomitant oral disease-specific PAH therapy only if the dose remained stable for at least 3 months prior to the start of screening. This therapy consisted of the following: ERA and/or an agent acting on the NO pathway including the following: a PDE-5 inhibitor and a sGC stimulator. Subjects were instructed to continue the same dose and regimen of these medications for the duration of the study.

O=C(O)COC[C@H]1CC[C@H](COC(=O)N(c2ccccc2)c2ccc(Cl)cc2)CC1 [Compound 1, 2-(((1r,4r)-4-(((4-chlorophenyl)(phenyl)carbamoyloxy)methyl)cyclohexyl)methoxy)acetic acid]
correlation between plasma levels and improvements in PVR (22-week study period, p=0.004 (FIG. 17)): significant correlation
increase of least-squares mean 6MWD (22 weeks, not significantly different from placebo): 36.2 m
adverse events (PAH patients, 22-week study): consistent with other prostacyclin treatments for the management of PAH
mean reduction in BNP from baseline to Week 22 versus placebo (difference not significantly different): numerically greater
mean pre-dose and 4 hours post-dose plasma concentrations (during the 9-week dose titration period (FIG. 15)): continued to rise
decrease of PVR from baseline to Week 22 (immediate-release capsule twice daily, titrated up to 0.6 mg total daily dose, p=0.02 vs placebo): 163.9 dyn·s·cm^−5
correlation between PVR percentage change and dose (in vivo): no significant correlation
correlation between plasma levels and improvements in 6MWD (p=0.0037 (FIG. 18)): significant correlation
correlation between plasma levels and improvements in BNP (p=0.047 (FIG. 19)): significant correlation
mean steady-state pre-dose and 4-hours post-dose plasma concentrations (throughout the 13-week maintenance period (FIG. 15)): maintained
